Patent US4309559A, “Sulphonamides useful as pesticides” (FBC Limited, priority 1977, dated 1982)

Key:
Format in all cases: in vivo
[1] = system: rice blast Pyricularia oryzae; conditions: 2000 ppm; soil and leaves; 7 days; controls less than 5%
[2] = system: vine downy mildew Plasmopara viticola; test: Vine downy mildew control on vine plants (leaf application); conditions: leaves, 12 days, controls less than 5%
Description: Aqueous acetone solutions or suspensions containing 2000 or 500 mg of the compound listed below per liter, together with 125 mg of a wetting agent per liter, were applied to:
(B) the leaves of vine plants having five fully expanded leaves;
The treated plants, together with controls treated with wetting agent alone, were inoculated 24 hours after the chemical application:
in the case of (B) with an aqueous suspension of sporangia of the disease organism vine downy mildew Plasmopara viticola;
in the case of (B) were placed in an atomosphere of 80-100% humidity at 14°-18° C. until the disease incidence was measured twelve days later;

[3] = system: barley powdery mildew Erysiphe graminis; test: Barley powdery mildew control on barley plants; conditions: 2000 ppm; soil and leaves; 10 days; controls less than 5%
[4] = system: cucumber powdery mildew Erysiphe cichoracearum; test: Cucumber powdery mildew control on cucumber plants; conditions: 2000 ppm; soil and leaves; 14 days; controls less than 5%
Peas (Pisum sativum) [5] = test: Post-emergence foliar spray, herbicidal/growth regulant response, peas; conditions: Lathyrus oleraceus, 168 h, foliar spray 11.2 kg/ha, 7 days, 0=no effect, 100=complete kill, read-out: herbicidal or growth regulant response index
Description: (§1) Seeds of the plant species listed below were sown in anodised aluminium pans, 19 cm long×9.5 cm wide×5 cm deep, containing John Innes I potting compost. They were then watered and placed in a controlled environment room (22° C.; 65-85% relative humidity; 14 hours per day artificial illumination at 13,000 lux). Fourteen days after sowing, the seedlings received a foliar spray of a compound listed below, formulated as a solution in 1:1 by volume aqueous acetone. The concentration of active ingredient and volume of application were adjusted so as to be equivalent to a rate of 11.2 kg/ha in 450 liters per hectare. After seven days growth in the controlled environment room, the plants were visually assessed for any herbicidal or growth regulant response. All differences from the untreated control were scored according to an index where 0=no effect and 100=complete kill.
(§2) The product of Example 95 was tested according to the procedure of Examples 49-55.

Mustard (Sinapis alba) [6] = test: Post-emergence foliar spray, herbicidal/growth regulant response, mustard; conditions: 168 h, foliar spray 11.2 kg/ha, 7 days, 0=no effect, 100=complete kill, read-out: herbicidal or growth regulant response index
Description: as §1, §2

[7] = system: Linseed (Linum usitatissimum); test: Post-emergence foliar spray, herbicidal/growth regulant response, linseed; conditions: 168 h, foliar spray 11.2 kg/ha, 7 days, 0=no effect, 100=complete kill, read-out: herbicidal or growth regulant response index
Description: as §1, §2

[8] = system: Ryegrass (Lolium perenne); test: Post-emergence foliar spray, herbicidal/growth regulant response, ryegrass; conditions: 168 h, foliar spray 11.2 kg/ha, 7 days, 0=no effect, 100=complete kill, read-out: herbicidal or growth regulant response index
Description: as §1, §2

[9] = system: Sugarbeet (Beta vulgaris); test: Post-emergence foliar spray, herbicidal/growth regulant response, sugarbeet; conditions: 168 h, foliar spray 11.2 kg/ha, 7 days, 0=no effect, 100=complete kill, read-out: herbicidal or growth regulant response index
Description: as §1, §2

Oat (Avena sativa) = test: Post-emergence foliar spray, herbicidal/growth regulant response, oat; conditions: 168 h, foliar spray 11.2 kg/ha, 7 days, 0=no effect, 100=complete kill, read-out: herbicidal or growth regulant response index
Description: as §1, §2

[10] = system: French beans (Phaseolus vulgaris); test: Post-emergence foliar spray, herbicidal/growth regulant response, French beans; conditions: foliar spray 11.2 kg/ha, 7 days, 0=no effect, 100=complete kill
Description: as §1, §2

Peas (Pisum sativum) [11] = test: Soil incorporation (attaclay/sand dust), growth regulatory or herbicidal effects, peas; conditions: Lathyrus oleraceus, 504 h, soil incorporation 26 ppm, 21 days, 0=no effect, 100=complete kill, read-out: growth regulatory or herbicidal effect score
Description: (§3) The compounds listed below were each formulated as an attaclay/sand dust and incorporated into John Innes I potting compost at a rate equivalent to 26 parts per million weight/volume of active ingredient to soil and placed in anodised aluminium pans, 19 cm long×9.5 cm wide×5.0 cm deep. This rate is approximately equivalent to a soil surface application of 11.2 kg active ingredient/hectare cultivated to a depth of 5 cm. Seeds of the species listed below were sown in the treated soil, watered and placed in a controlled environment room (22° C.; 65-85% relative humidity; 14 hours per day artificial illumination at 13,000 lux) for 21 days. The plants were then visually assessed for any growth regulatory or herbicidal effects. All differences from an untreated control were scored on a scale from 0-100, where 0 signifies no effect and 100 signifies complete kill.
(§4) The compounds listed below were tested according to the procedure of Examples 56-60 but at 130 parts per million weight/volume of active ingredient to soil. This rate is approximately equivalent to a soil surface application of 56 kg active ingredient per hectare cultivated to a depth of 5 cm.
(§5) The product of Example 95 was tested according to the procedure of Examples 56-60 but at 130 and 26 parts per million weight/volume. The results were as follows:
(§6) N-(2-oxopropyl)-2'-chloro-6'-methyl-methanesulphonanilide, formulated as an attaclay/sand dust, was incorporated in John Innes I potting compost at a rate equivalent to 130 parts per million weight/volume of active ingredient to soil and placed in anodised aluminium pans, 19 cm long×9.5 cm wide×5.0 cm deep. These rates are approximately equivalent to a soil surface application of 56 kg active ingredient per hectare cultivated to a depth of 5 cm. Seeds of Peas, Mustard, Linseed, Maize, Oats and Ryegrass were sown in the treated soil, watered and placed in a controlled environment room (22° C.; 65-85% relative humidity; 14 hours artificial illumination at 13000 lux) for 21 days.
(§7) The plants were then visually assessed for any growth regulatory or herbicidal effects. All differences from an untreated control were scored on a scale from 0-100, where 0 signifies no effect and 100 signifies complete suppression.

Mustard (Sinapis alba) [12] = test: Soil incorporation (attaclay/sand dust), growth regulatory or herbicidal effects, mustard; conditions: 504 h, soil incorporation 26 ppm, 21 days, 0=no effect, 100=complete kill, read-out: growth regulatory or herbicidal effect score
Description: as §3, §4, §5, §6, §7

[13] = system: Linseed (Linum usitatissimum); test: Soil incorporation (attaclay/sand dust), growth regulatory or herbicidal effects, linseed; conditions: 504 h, soil incorporation 26 ppm, 21 days, 0=no effect, 100=complete kill, read-out: growth regulatory or herbicidal effect score
Description: as §3, §4, §5, §6, §7

Maize (Zea mays) = test: Soil incorporation (attaclay/sand dust), growth regulatory or herbicidal effects, maize; conditions: 504 h, soil incorporation 26 ppm, 21 days, 0=no effect, 100=complete kill, read-out: growth regulatory or herbicidal effect score
Description: as §3, §4, §5, §6, §7

Oats (Avena sativa) = test: Soil incorporation (attaclay/sand dust), growth regulatory or herbicidal effects, oats; conditions: 504 h, soil incorporation 26 ppm, 21 days, 0=no effect, 100=complete kill, read-out: growth regulatory or herbicidal effect score
Description: as §3, §4, §5, §6, §7

[14] = system: Ryegrass (Lolium perenne); test: Soil incorporation (attaclay/sand dust), growth regulatory or herbicidal effects, ryegrass; conditions: 504 h, soil incorporation 26 ppm, 21 days, 0=no effect, 100=complete kill, read-out: growth regulatory or herbicidal effect score
Description: as §3, §4, §5, §6, §7

[15] = system: Wheat (Triticum aestivum); test: Pre-emergence soil surface spray, wheat; conditions: soil surface spray 2.8 kg/ha, 21 days, 0=no effect, 100=complete kill
Description: (§8) Seeds of the plant species listed below were sown in John Innes I potting compost in aluminium pans, 19 cm long×9.5 cm wide×5.0 cm high, one species per pan. The soil surface was then sprayed with a compound listed below, formulated as a solution in 1:1 by volume aqueous acetone except for the compound of Example 44 which was formulated as an aqueous suspension containing 1000 parts per million of the wetting agent Lissapol NX (nonylphenol/ethylene oxide condensate). Each compound was applied at a rate of 2.8 kg of active ingredient per hectare in 450 liters of spray liquid per hectare. The pans were then watered, and placed in a controlled environment room (22° C., relative humidity 65-85%, 14 hours per day artificial illumination at 17,000 lux) for 21 days. The plants were then visually assessed for any growth regulatory or herbicidal effects. All differences from an untreated control were scored on a scale from 0-100, where 0 signifies no effect and 100 signifies complete kill.

Barley (Hordeum vulgare) = test: Pre-emergence soil surface spray, barley; conditions: soil surface spray 2.8 kg/ha, 21 days, 0=no effect, 100=complete kill
Description: as §8

Wild Oat (Avena fatua) = test: Pre-emergence soil surface spray, wild oat; conditions: soil surface spray 2.8 kg/ha, 21 days, 0=no effect, 100=complete kill
Description: as §8

[16] = system: Blackgrass (Alopecurus myosuroides); test: Pre-emergence soil surface spray, blackgrass; conditions: soil surface spray 2.8 kg/ha, 21 days, 0=no effect, 100=complete kill
Description: as §8

[17] = system: Barnyardgrass (Echinochloa crus-galli); test: Pre-emergence soil surface spray, barnyardgrass; conditions: soil surface spray 2.8 kg/ha, 21 days, 0=no effect, 100=complete kill
Description: as §8

[18] = system: Crabgrass (Digitaria sanguinalis); test: Pre-emergence soil surface spray, crabgrass; conditions: soil surface spray 2.8 kg/ha, 21 days, 0=no effect, 100=complete kill
Description: as §8

Q: For `CCS(=O)(=O)N(CC(=O)C(C)(C)C)c1c(C)cccc1C` [Example 212, N-2-oxo-3,3-dimethylbutyl-2',6'-dimethyl-ethanesulphonanilide], which “% Control, rice blast” value [1] is on record?
A: 80%

Q: `COC(=O)C(C)N(c1c(C)cccc1C)S(C)(=O)=O` (stereo not drawn) [Example 29, N-(1-(methoxycarbonyl)ethyl)-2',6'-dimethyl-methanesulphonanilide] was tested. Which “% Control, vine downy mildew” value ([2]; 500 ppm) did it give?
A: 90%

Q: And the “% Control, vine downy mildew” value ([2]; 2000 ppm)?
A: 98%

Q: Which “% Control, barley powdery mildew” value [3] does the source give for `Cc1cccc(C)c1N(C1CCOC1=O)S(C)(=O)=O` (stereo not drawn) [Example 123] here?
A: 95%

Q: And the “% Control, cucumber powdery mildew” value [4]?
A: 92%

Q: For `CCCS(=O)(=O)N(c1c(C)cccc1C)C(C)C(=O)OC(C)C` (stereo not drawn) [Example 3], which pest or weed control at 11200 g/ha (Peas (Pisum sativum) [5]) is on record?
A: 5%

Q: What about the pest or weed control at 11200 g/ha (Mustard (Sinapis alba) [6]) of the same compound?
A: 90%

Q: What about the pest or weed control at 11200 g/ha [7] of the same compound?
A: 30%

Q: What about the pest or weed control at 11200 g/ha [8] of the same compound?
A: 15%

Q: And the plant injury at 11200 g/ha [9]?
A: 90%

Q: What about the plant injury at 11200 g/ha (Oat (Avena sativa)) of the same compound?
A: 5%

Q: And the “herbicidal or growth regulant response index” value [10]?
A: 80

Q: And the pest or weed control at 26 µg/mL (Peas (Pisum sativum) [11])?
A: 0%

Q: And the pest or weed control at 26 µg/mL (Mustard (Sinapis alba) [12])?
A: 90%

Q: And the pest or weed control at 26 µg/mL [13]?
A: 20%

Q: And the plant injury at 26 µg/mL (Maize (Zea mays))?
A: 20%

Q: What about the plant injury at 26 µg/mL (Oats (Avena sativa)) of the same compound?
A: 20%

Q: What about the pest or weed control at 26 µg/mL [14] of the same compound?
A: 90%

Q: What about the “growth regulatory or herbicidal effect score” value [15] of the same compound?
A: 0

Q: What about the “growth regulatory or herbicidal effect score” value (Barley (Hordeum vulgare)) of the same compound?
A: 0

Q: And the “growth regulatory or herbicidal effect score” value (Wild Oat (Avena fatua))?
A: 80

Q: What about the “growth regulatory or herbicidal effect score” value [16] of the same compound?
A: 90

Q: And the “growth regulatory or herbicidal effect score” value [17]?
A: 60

Q: And the “growth regulatory or herbicidal effect score” value [18]?
A: 90
